Laboratory results from ChEMBL document CHEMBL4184140, “Expanding the tetrahydroquinoline pharmacophore” (Bioorg Med Chem Lett, 2017).
Active and inactive are the calls of the source. No cut-off for these calls is given here.

What was measured:
A549 = experiment: Antiproliferative activity against human A549 cells; assay type: functional, cell-based
DU-145 = experiment: Antiproliferative activity against human DU145 cells; assay type: functional, cell-based
IMR-32 [1] = experiment: Neurotrophic activity in human IMR32 cells assessed as appearance of neurites at 1 to 10 uM after 96 hrs by bright field microscopic analysis; assay type: functional, cell-based
MCF7 = experiment: Antiproliferative activity against human MCF7 cells; assay type: functional, cell-based
HepG2 = experiment: Antiproliferative activity against human HepG2 cells; assay type: functional, cell-based
IMR-32 [2] = experiment: Cytotoxicity against human IMR32 cells after 48 hrs by SRB assay; assay type: cell-based; conditions: IMR-32, 48 h

Row | SMILES | Activity (A549) | Activity (DU-145) | Activity (IMR-32 [1]) | Activity (MCF7) | Activity (HepG2) | IC50 (IMR-32 [2])
1 | CC(=O)N1c2ccccc2[C@@H]2[C@@H](C[C@@H]3O[C@H]23)[C@H]1c1ccc(Cl)cc1 | inactive | inactive | inactive | inactive | inactive | > 100 µM
2 | CC(=O)N1c2cc([N+](=O)[O-])ccc2[C@H]2[C@@H](O)[C@H](N=[N+]=[N-])C[C@H]2[C@H]1c1ccccc1 | inactive | inactive | inactive | inactive | inactive | > 100 µM
3 | O[C@@H]1[C@@H]2c3ccc(F)cc3N[C@H](c3ccccc3)[C@@H]2C[C@@H]1O | inactive | inactive | inactive | inactive | inactive | > 100 µM
4 | CC(=O)N1c2ccccc2[C@H]2C=CC[C@H]2[C@H]1c1ccccc1C | inactive | inactive | inactive | inactive | inactive | > 100 µM
5 | Cc1ccccc1[C@H]1Nc2ccccc2[C@H]2C=CC[C@H]21 | inactive | inactive | inactive | inactive | inactive | 87.2 µM
6 | CC(=O)N1c2ccccc2[C@H]2C=CC[C@H]2[C@H]1c1cccc(Br)c1 | inactive | inactive | inactive | inactive | inactive | > 100 µM
7 | O[C@@H]1[C@@H]2c3ccccc3N[C@H](c3ccc(Cl)cc3)[C@@H]2C[C@@H]1O | inactive | inactive | inactive | inactive | inactive | 64.6 µM
8 | O=[N+]([O-])c1ccc2c(c1)N[C@H](c1ccccc1)[C@@H]1CC=C[C@H]21 | inactive | inactive | inactive | inactive | inactive | > 100 µM
9 | CC(=O)N1c2ccccc2[C@H]2C=CC[C@H]2[C@H]1c1ccccc1 | inactive | inactive | inactive | inactive | inactive | 61.6 µM
10 | O=[N+]([O-])c1ccc2c(c1)N[C@H](c1ccccc1)[C@@H]1C[C@H](O)[C@H](O)[C@H]21 | inactive | inactive | inactive | inactive | inactive | 57.1 µM
11 | CC(=O)N1c2ccccc2[C@H]2[C@@H](O)[C@@H](O)C[C@H]2[C@H]1c1ccccc1 | inactive | inactive | inactive | inactive | inactive | > 100 µM
12 | CC(=O)N1c2ccccc2[C@H]2C=CC[C@H]2[C@H]1c1ccc(Cl)cc1 | inactive | inactive | inactive | inactive | inactive | 94.7 µM
13 | Fc1ccc2c(c1)N[C@H](c1ccccc1)[C@@H]1CC=C[C@H]21 | inactive | inactive | inactive | inactive | inactive | > 100 µM
14 | COc1cccc2c1C(=O)c1c(O)c3c(c(O)c1C2=O)C[C@@](O)(C(=O)CO)C[C@@H]3O[C@H]1C[C@H](N)[C@H](O)[C@H](C)O1 [DOXORUBICIN] | – | – | – | – | – | 8.49 µM
